Laboratory results from ChEMBL document CHEMBL5226288, “A perspective on medicinal chemistry approaches towards adenomatous polyposis coli and Wnt signal based colorectal cancer inhibitors” (Eur J Med Chem, 2021).
≈ marks a conversion by molar mass, not a printed value. Non-standard residues stand in square brackets, D forms with d. Residues, ends and D or L forms follow the SMILES beside them. Hica(2S) = CC(C)C[C@H](O)C(=O)O; NMeV = CN[C@H](C(=O)O)C(C)C; NMeA = CN[C@@H](C)C(=O)O; βAla = NCCC(=O)O

Assays:
DLD-1 = assay: Antiproliferative activity against human DLD-1 cells assessed as reduction in cell viability by WST assay; type: functional, cell-based
HT-29 = assay: Antiproliferative activity against human HT-29 cells assessed as reduction in cell viability; type: functional, cell-based
SW480 [1] = assay: Antiproliferative activity against human SW480 cells assessed as reduction in cell viability incubated for 24 hrs by CCK-8 assay; type: functional, cell-based; conditions: SW480, 24 h
SW480 [2] = assay: Anticancer activity against human SW480 cells assessed as reduction in cell viability incubated for 72 hrs by MTT assay; type: functional, cell-based; conditions: SW480, 72 h
LoVo [3] = assay: Antiproliferative activity against human LoVo cells assessed as reduction in cell viability; type: functional, cell-based
[4] = target: Catenin beta-1/Transcription factor 7 (Homo sapiens, UniProt P35222+P36402); assay: Inhibition of human beta-catenin (142 to 686 residues)/human TCF (7 to 51 residues) protein-protein interaction incubated for 3 hrs by fluorescence polarization assay
Sequence of Catenin beta-1/Transcription factor 7 (P36402 whole entry, the tested form may be a part): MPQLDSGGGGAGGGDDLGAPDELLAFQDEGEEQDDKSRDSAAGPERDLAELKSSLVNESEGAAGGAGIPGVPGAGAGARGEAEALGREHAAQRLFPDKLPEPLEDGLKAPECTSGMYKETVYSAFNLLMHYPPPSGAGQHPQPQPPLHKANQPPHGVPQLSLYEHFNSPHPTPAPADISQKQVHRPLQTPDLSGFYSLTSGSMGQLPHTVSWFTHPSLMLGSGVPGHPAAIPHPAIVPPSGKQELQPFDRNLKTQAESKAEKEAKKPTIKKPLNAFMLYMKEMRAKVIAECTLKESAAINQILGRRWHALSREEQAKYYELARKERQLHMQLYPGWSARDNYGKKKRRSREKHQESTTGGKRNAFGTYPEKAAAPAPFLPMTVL
Sequence of Catenin beta-1/Transcription factor 7 (P35222 whole entry, the tested form may be a part): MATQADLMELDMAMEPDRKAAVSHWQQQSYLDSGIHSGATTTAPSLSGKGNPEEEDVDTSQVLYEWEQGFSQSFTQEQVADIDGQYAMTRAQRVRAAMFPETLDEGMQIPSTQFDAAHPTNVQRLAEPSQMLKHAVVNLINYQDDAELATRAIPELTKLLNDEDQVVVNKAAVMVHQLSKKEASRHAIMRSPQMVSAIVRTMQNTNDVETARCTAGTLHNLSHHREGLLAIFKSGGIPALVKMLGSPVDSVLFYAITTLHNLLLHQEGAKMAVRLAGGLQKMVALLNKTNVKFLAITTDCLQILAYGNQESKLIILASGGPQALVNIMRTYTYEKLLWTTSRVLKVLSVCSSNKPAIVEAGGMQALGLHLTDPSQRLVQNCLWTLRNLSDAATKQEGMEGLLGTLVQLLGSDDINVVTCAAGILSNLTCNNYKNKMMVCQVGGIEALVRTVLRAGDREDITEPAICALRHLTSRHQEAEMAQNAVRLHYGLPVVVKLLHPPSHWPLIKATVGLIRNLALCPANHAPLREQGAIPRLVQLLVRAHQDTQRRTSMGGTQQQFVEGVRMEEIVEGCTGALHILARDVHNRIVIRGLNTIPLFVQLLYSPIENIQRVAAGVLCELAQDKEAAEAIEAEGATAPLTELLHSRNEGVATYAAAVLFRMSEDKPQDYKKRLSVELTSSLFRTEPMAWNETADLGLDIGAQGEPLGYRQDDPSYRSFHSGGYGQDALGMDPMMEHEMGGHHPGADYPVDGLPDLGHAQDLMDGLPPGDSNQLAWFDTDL

CBP/beta catenin = CBP/beta catenin (Homo sapiens, UniProt P35222+Q92793); assay: Antagonist activity at CBP/beta-catenin (unknown origin) protein-protein interaction; type: protein assay
Sequence of CBP/beta catenin (Q92793 whole entry): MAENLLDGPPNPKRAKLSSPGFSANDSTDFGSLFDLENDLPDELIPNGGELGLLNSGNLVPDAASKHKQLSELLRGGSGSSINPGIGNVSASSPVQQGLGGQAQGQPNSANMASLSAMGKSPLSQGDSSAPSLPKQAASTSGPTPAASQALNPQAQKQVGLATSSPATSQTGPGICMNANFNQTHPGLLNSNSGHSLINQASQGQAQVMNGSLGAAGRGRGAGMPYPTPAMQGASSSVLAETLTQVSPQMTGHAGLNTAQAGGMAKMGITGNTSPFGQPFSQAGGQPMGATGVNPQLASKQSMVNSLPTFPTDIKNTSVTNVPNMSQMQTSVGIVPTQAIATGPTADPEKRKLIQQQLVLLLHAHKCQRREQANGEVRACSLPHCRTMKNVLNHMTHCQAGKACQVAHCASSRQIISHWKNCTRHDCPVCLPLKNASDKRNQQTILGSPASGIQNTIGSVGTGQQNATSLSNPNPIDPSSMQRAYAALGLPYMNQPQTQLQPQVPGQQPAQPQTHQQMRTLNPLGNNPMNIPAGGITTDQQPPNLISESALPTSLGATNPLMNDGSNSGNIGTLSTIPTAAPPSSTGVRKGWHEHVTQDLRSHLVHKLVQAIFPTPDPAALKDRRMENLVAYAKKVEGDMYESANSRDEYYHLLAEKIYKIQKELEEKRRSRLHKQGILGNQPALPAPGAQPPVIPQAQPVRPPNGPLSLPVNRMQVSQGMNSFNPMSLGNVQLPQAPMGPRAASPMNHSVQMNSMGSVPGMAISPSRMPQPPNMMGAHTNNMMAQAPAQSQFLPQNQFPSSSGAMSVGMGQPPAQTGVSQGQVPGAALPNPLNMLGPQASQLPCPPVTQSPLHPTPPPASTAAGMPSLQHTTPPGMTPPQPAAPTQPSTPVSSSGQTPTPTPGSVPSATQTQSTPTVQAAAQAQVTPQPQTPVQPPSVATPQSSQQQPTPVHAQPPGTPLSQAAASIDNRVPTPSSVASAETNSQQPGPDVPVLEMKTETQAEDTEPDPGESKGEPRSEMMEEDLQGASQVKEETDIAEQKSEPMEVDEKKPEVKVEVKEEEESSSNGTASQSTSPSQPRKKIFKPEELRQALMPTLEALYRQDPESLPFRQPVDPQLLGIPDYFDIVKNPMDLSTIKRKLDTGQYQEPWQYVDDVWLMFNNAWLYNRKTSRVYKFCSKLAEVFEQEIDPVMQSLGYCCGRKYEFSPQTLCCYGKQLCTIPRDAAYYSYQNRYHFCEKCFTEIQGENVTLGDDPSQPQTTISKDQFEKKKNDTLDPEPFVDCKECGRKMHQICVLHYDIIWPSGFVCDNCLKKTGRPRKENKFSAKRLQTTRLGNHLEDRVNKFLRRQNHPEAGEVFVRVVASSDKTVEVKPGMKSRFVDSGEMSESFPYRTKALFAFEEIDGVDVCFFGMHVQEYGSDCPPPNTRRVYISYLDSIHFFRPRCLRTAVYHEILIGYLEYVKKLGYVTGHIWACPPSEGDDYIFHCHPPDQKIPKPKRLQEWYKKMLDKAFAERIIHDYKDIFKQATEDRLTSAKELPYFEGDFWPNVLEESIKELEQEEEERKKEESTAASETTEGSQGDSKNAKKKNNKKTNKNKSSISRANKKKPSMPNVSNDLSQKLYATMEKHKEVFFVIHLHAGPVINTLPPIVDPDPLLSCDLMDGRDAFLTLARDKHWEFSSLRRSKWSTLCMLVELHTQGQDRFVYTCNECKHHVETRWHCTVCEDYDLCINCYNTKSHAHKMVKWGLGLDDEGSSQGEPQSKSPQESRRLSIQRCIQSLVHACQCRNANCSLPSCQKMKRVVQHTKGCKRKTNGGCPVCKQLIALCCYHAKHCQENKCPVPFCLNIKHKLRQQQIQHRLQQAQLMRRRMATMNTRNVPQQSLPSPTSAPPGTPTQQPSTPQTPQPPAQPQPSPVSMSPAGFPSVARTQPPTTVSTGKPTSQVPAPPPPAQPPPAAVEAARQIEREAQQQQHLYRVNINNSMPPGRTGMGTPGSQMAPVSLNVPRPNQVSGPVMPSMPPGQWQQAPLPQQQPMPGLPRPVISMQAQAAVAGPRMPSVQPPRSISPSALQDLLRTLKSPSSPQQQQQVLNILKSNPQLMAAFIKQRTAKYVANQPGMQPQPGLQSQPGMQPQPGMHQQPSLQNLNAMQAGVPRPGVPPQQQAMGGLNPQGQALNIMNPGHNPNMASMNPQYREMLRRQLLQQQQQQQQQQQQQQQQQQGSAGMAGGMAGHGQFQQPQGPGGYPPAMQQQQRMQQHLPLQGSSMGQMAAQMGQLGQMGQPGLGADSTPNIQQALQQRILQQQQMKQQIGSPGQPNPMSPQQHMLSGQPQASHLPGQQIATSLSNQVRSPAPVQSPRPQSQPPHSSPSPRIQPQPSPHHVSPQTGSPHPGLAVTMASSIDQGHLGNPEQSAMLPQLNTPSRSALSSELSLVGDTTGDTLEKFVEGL
Sequence of CBP/beta catenin (P35222 whole entry): as the sequence (P35222 whole entry, the tested form may be a part) above

[5] = Anticancer activity against human colorectal cancer cell lines assessed as reduction in cell viability incubated for 24 to 72 hrs by MTT assay; type: functional, cell-based
LoVo [6] = assay: Anticancer activity against human LoVo cells assessed as reduction in cell viability incubated for 24 hrs by MTT assay; type: functional, cell-based
SW480 [7] = assay: Anticancer activity against human SW480 cells assessed as reduction in cell viability incubated for 24 hrs by MTT assay; type: functional, cell-based; conditions: SW480, 24 h
SW48 = assay: Anticancer activity against human SW48 cells assessed as cell growth inhibition; type: functional, cell-based
SW480 [8] = assay: Anticancer activity against human SW480 cells assessed as cell growth inhibition incubated for 24 hrs by MTS assay; type: functional
SW480 [9] = assay: Antiproliferative activity against human SW480 cells expressing firefly and renilla luciferase assessed as reduction in cell growth incubated for 3 hrs by TOPFlash luciferase assay; type: functional, cell-based; conditions: SW480, 3 h
DNA polymerase beta = DNA polymerase beta (Homo sapiens, UniProt P06746); assay: Inhibition of human DNA polymerase beta by fluorescence anisotropy
SW480 [10] = assay: Anticancer activity against human SW480 cells assessed as reduction in cell viability incubated for 12 to 24 hrs by MTS assay; type: functional, cell-based
SW480 [11] = assay: Antiproliferative activity against human SW480 cells assessed as reduction in cell proliferation incubated for 12 to 24 hrs by CCK-8 assay; type: functional, cell-based
HCT-116 [12] = assay: Antiproliferative activity against human HCT-116 cells assessed as reduction in cell proliferation incubated for 12 to 24 hrs by CCK-8 assay; type: functional, cell-based
[13] = Inhibition of Wnt1 signalling in human SW480 cells expressing ST-Luc and renilla firefly luciferase incubated for 24 hrs by dual-luciferase reporter assay; type: cell-based; conditions: SW480, 24 h
[14] = Inhibition of Wnt1 signalling in human HCT-116 cells expressing ST-Luc and renilla firefly luciferase incubated for 24 hrs by dual-luciferase reporter assay; type: cell-based; conditions: HCT-116, 24 h
SW480 [15] = assay: Anticancer activity against human SW480 cells assessed as reduction in cell proliferation incubated for 48 hrs by sulforhodamine B assay; type: functional, cell-based; conditions: SW480, 48 h
HCT-116 [16] = assay: Anticancer activity against human HCT-116 cells assessed as reduction in cell proliferation incubated for 48 hrs by sulforhodamine B assay; type: functional, cell-based; conditions: HCT-116, 48 h
[17] = Inhibition of Wnt signalling in human HEK293T cells expressing Topflash and renilla luciferase reporter gene incubated for 24 hrs by Dual-luciferase assay; type: cell-based; conditions: HEK-293T
SW-620 = assay: Anticancer activity against human SW-620 cells assessed as reduction in cell viability incubated for 24 hrs by CCK-8 assay; type: functional, cell-based; conditions: SW-620, 24 h
KM12 = assay: Anticancer activity against human KM12 cells assessed as reduction in cell viability incubated for 24 hrs by CCK-8 assay; type: functional, cell-based; conditions: KM12, 24 h
HCT-116 [18] = assay: Antiproliferative activity against human HCT-116 cells assessed as reduction in cell proliferation incubated for 72 hrs by CellTiter-Glo assay; type: functional, cell-based; conditions: HCT-116, 72 h
SW480 [19] = assay: Anticancer activity against human SW480 cells assessed as reduction in cell viability incubated for 72 hrs; type: functional, cell-based; conditions: SW480, 72 h
HCT-116 [20] = assay: Anticancer activity against human HCT-116 cells assessed as reduction in cell viability incubated for 72 hrs; type: functional, cell-based; conditions: HCT-116, 72 h
HCT-116 [21] = assay: Antiproliferative activity against human HCT-116 cells assessed as reduction in cell viability incubated for 72 hrs by MTS assay; type: functional, cell-based; conditions: HCT-116, 72 h

## O=C1[C@@H](Cc2ccccc2)N2C(=O)CCN(C(=O)NCc3ccccc3)[C@@H]2CN1Cc1cccc2ccccc12
DLD-1
  IC50: 21.5 µM

## Nc1ccc(O)c(C(=O)O)c1 [MESALAMINE]
HT-29
  IC50: 20000 µM

## CC(C)[C@]12O[C@H]1[C@@H]1O[C@]13[C@]1(O[C@H]1C[C@H]1C4=C(CC[C@@]13C)C(=O)OC4)[C@@H]2O [TRIPTOLIDE]
SW480 [1]
  IC50: 0.05 µM

## C[C@@H]1O[C@H]2O[C@H]3[C@@H](OC[C@H](O)[C@@H]3O)OC(=O)[C@@H]3CC(C)(C)C[C@H]4C5=CC[C@@H]6[C@@]7(C)C[C@H](O)[C@H](O[C@@H]8O[C@H](CO)[C@@H](O)[C@H](O)[C@H]8O[C@@H]8OC[C@H](OC(=O)C[C@](C)(O)CC(=O)O[C@@H]1[C@@H](O[C@@H]1OC[C@@H](O)[C@H](O)[C@H]1O)[C@H]2O)[C@H](O)[C@H]8O)[C@@](C)(CO)[C@@H]7CC[C@@]6(C)[C@]5(C)CCC34
SW480 [2]
  IC50: 40 µM

## COc1cc2c(cc1OC)[C@@]13CCN4CC5=CCO[C@H]6CC(=O)N2[C@H]1[C@H]6[C@H]5C[C@H]43 [BRUCINE]
LoVo [3]
  IC50: 18.2 µM

## Cn1ncc2cc(CCc3nn[nH]n3)ccc21
[4]
  IC50: 3.14 µM

## C[C@H]1[C@H]2N(C(=O)CN(C)N2C(=O)NCc2ccccc2)[C@@H](Cc2ccc(OP(=O)(O)O)cc2)C(=O)N1Cc1cccc2cccnc12
CBP/beta catenin
  IC50: 0.15 µM

## C[C@H]1[C@H](OC(=O)CCC(=O)O)O[C@@H]2O[C@@]3(C)CC[C@H]4[C@H](C)CC[C@@H]1[C@@]24OO3 [ARTESUNATE]
[5]
  IC50: 20.3 µM

## C[C@@H]1O[C@@H](O[C@H]2[C@H](O[C@H]3[C@H](O[C@H]4CC[C@@]5(C)C6CC=C7[C@@H]8CC(C)(C)CC[C@]8(C(=O)O)CC[C@]7(C)C6(C)CC[C@H]5C4(C)C)OC[C@H](O)[C@@H]3O)O[C@H](CO)[C@@H](O)[C@@H]2O)[C@H](O)[C@H](O)[C@H]1O (stereo partly drawn)
LoVo [6]
  IC50: 1.01 µM
SW480 [7]
  IC50: 1.81 µM

## COc1cc(OC)c2c(c1)O[C@@]1(c3ccc(Br)cc3)[C@H](c3ccccc3)C[C@@H](O)[C@@]21O
SW48
  IC50: 0.01 µM

## CN1CC(=O)N2C(CN(Cc3cccc4ccccc34)C[C@@H]2Cc2ccc(O)cc2)N1C(=O)NCc1ccccc1 (stereo partly drawn)
SW480 [8]
  GI50: 0.98 µg/mL (≈ 1.78 µM)

## O=C(NCc1ccccc1)N1CCC(=O)N2C1CN(Cc1cccc3ccccc13)C[C@@H]2Cc1ccc(O)cc1 (stereo partly drawn)
SW480 [9]
  IC50: 8.07 µM

## Cc1ccc(Nc2nc(NS(=O)(=O)c3cc(C)c(C)cc3C)n[nH]2)cc1
DNA polymerase beta
  IC50: 5 µM

## O=C(Nc1ccc([N+](=O)[O-])cc1Cl)c1cc(Cl)ccc1O [NICLOSAMIDE]
SW480 [10]
  IC50: 1 µM

## O=c1[nH]c2ccccc2n1C1CCN(CCCC(c2ccc(F)cc2)c2ccc(F)cc2)CC1 [PIMOZIDE]
SW480 [11]
  IC50: 10 µM
HCT-116 [12]
  IC50: 10 µM

## CC[C@]12CCCN3CCc4c(n(c5ccccc45)[C@@H](c4ccc(O)c5c4N[C@H]4CC[C@]6(CC)CCCN7CC[C@]54[C@@H]76)C1)C32 (stereo partly drawn)
[13]
  IC50: 4.94 µM
[14]
  IC50: 4.47 µM

## CC[C@H](C)[C@@H]1NC(=O)[C@@H]2CCCN2C(=O)[C@H](CC(C)C)OC(=O)CCNC(=O)[C@H](C)N(C)C(=O)[C@H](C(C)C)N(C)C1=O [destruxin B] (cyclo([Hica(2S)]PI[NMeV][NMeA][βAla]))
SW480 [15]
  IC50: 6.25 µM
HCT-116 [16]
  IC50: 6.3 µM

## CCn1c2ccccc2c2cc(C(=O)OC(C)C)nc(-c3cccc4ccccc34)c21
[17]
  IC50: 2.8 µM

## CO[C@@H]1C[C@@H](C[C@H]2CC[C@H](C)[C@H]([C@@H](C)C(=O)O)O2)O[C@]2(O[C@](C)([C@H]3CC[C@@](C)([C@@H]4O[C@@H]([C@H]5O[C@@](O)(CO)[C@H](C)C[C@@H]5C)C[C@@H]4C)O3)C[C@H]2C)[C@@H]1C [NIGERICIN]
SW-620
  IC50: 1.39 µM
KM12
  IC50: 8.48 µM

## CC(=O)c1cc2c(o1)C(=O)c1ccccc1C2=O [NAPABUCASIN]
HCT-116 [18]
  IC50: 0.3 µM

## Cc1cc(/C=C/c2ccc3cc(N(C)C)ccc3[n+]2C)c(C)n1-c1ccccc1
SW480 [19]
  EC50: 0.056 µM
HCT-116 [20]
  EC50: 0.043 µM

## C=CCN1CC(=O)N2C(CN(Cc3cccc4cn(C)nc34)C[C@@H]2Cc2ccc(OP(=O)(O)O)cc2)N1C(=O)NCc1ccccc1 (stereo partly drawn)
HCT-116 [21]
  IC50: 0.91 µM
